Measurements from patent US10377731B2, “Compositions and methods for cancer treatment” (Boston Biomedical, Inc., priority 2007, dated 2019).
Like-named read-outs stand apart in the source and are kept apart here.

Tests used:
[1] = test system: Paca2 human pancreatic cancer cells; assay: Colony formation, Paca2 cells, single drugs and combinations; type: cell-based
Description: (§1) Paca2 human pancreatic cancer cells, A549 human lung cancer cells, and HepG2 human liver cancer cells (American Type Culture Collection) were cultured in Dulbecco's modified Eagle's medium containing 10% fetal bovine serum, 100 units/mL penicillin, 100 μg/mL streptomycin, and 2 mM L-glutamine. […] Erlotinib was from American Custom Chemicals (San Diego, Calif.). Gemcitabine was from Eli Lilly (Indianapolis, Ind.) in an aqueous 20 mM stock solution. Sorafenib was Mass.). Unless otherwise noted all compounds were solubilized in DMSO at 10 mM and aliquoted at −20° C. Exponentially growing Paca2 pancreatic cancer cells were seeded at 1,000 cells per well in 6-well plates and allowed to attach for 24 hours. Increasing concentrations of individual drugs and those in combination were then added to the media for another 24 hours. After 24 hours exposure, the drug was removed and fresh media was added for the next 10-14 days, allowing for colony formation. Cells were fixed and stained with GIEMSA (Gibco BRL). […] Results are an average of duplicate experiments. Alternatively, MTT assays were performed 72 hours post-treatment in A549 and HepG2 cells.

Stat3 [2] = assay: Stat3-luciferase (Stat3-Luc) reporter assay, OSM-stimulated HeLa cells; type: cell-based; conditions: for IC50: Homo sapiens, HeLa cells, compound 30 minutes before 25 ng/ml oncostatin M, read 6 hours later, read-out: IC50 in Stat3-Luc assays
Description: Luciferase Reporter Assay: HeLa Cells were co-transfected with Stat3-luciferase (Stat3-Luc) reporter vector (Panomics, Fremont, Calif.) and Renilla luciferase (Promega, Madison, Wis.) using Lipofectamine 2000 as described by the manufacturer (Invitrogen). Following transfection, cells were maintained in medium containing 0.5% FBS for 24 hours. Cells were then treated with the indicated compound for 30 minutes prior to the addition of 25 ng/ml oncostatin M (OSM) (R&D Systems, Minneapolis, Minn.) to the medium. 6 hours following OSM addition, cells were harvested and levels of firefly and renilla luciferase were measured using the Dual-Glo Luciferase Assay System as described by the manufacturer (Promega).
Inhibition of Stat3 transcription activity. Compounds were tested for their ability to inhibit Stat3 transcription activation activity in cells using a Stat3-luciferase (Stat3-luc) reporter construct. Cells transfected with Stat3-luc were cultured in reduced serum medium prior to addition of indicated compound for 30 minutes. Cells were then stimulated with 25 ng/ml oncostatin M (OSM) for 6 hours followed by detection of Stat3-luc reporter activity. […] AG490, a known inhibitor of the Jak-Stat pathway, was included as a positive control for Stat3 inhibition.

Stat3 [3] = assay: Stat3 DNA binding assay (EMSA), HeLa nuclear extract; type: biochemical; conditions: HeLa nuclear extract with constitutively activated Stat3
Description: STAT3 DNA Binding Assay: Electrophoretic mobility shift assay (EMSA) was performed as described by the manufacturer (Li-Cor Biosciences, Lincoln, Nebr.). Briefly, nuclear extracts were made from HeLa cells using the NucBuster Protein Extraction Kit as described by the manufacturer (EMD Biosciences, San Diego, Calif.). 5 μg of nuclear extract was pre-incubated with the indicated dose of indicated compound for 30 minutes prior to a 15-minute incubation with the IR700-labeled consensus Stat3 oligonucleotide. Samples were then electrophoresed on a polyacrylamide gel and directly scanned using the Odyssey infrared imaging system (Li-Cor Biosciences). For the enzyme-linked immunosorbent assay (ELISA), 5 μg of nuclear extract was preincubated with indicated concentration of indicated compound for 30 minutes prior to the addition of biotinylated oligo (5′-Biotin-[…]-3′ SEQ ID NO. 1). Stat3-DNA complexes were then captured on streptavidin coated 96 well plates (Pierce, Rockford, Ill.). Bound complexes were then incubated with Stat3 polyclonal antibody (Santa Cruz Biotechnology, Santa Cruz, Calif.) followed by anti-rabbit HRP conjugated secondary antibody (GE Healthcare, Pittsburgh, Pa.). Bound antibody was then visualized by addition of TMB substrate (Pierce) and absorbance measured at 450 nm.
Inhibition of Stat3 DNA-binding activity. Nuclear extracts from HeLa cells, which contain constitutively activated Stat3 as detected by phosphorylation at the tyrosine 705 residue, were used to perform Stat3 EMSAs to monitor Stat3 DNA binding activity. Nuclear extracts were incubated with indicated compound prior to incubation with IR700-labeled Stat3 consensus oligonucleotide. Binding of Stat3 to the oligonucleotide was monitored by gel electrophoresis and detection using a LiCor Odyssey infrared scanner.

CD44high CSCs (FaDu) = assay: Sphere assay (CSC spherogenesis); type: cell-based, human; conditions: applied at approximately ten times their IC50 concentrations for cell death
Description: CD44^high cells were isolated by FACS according to the methods described in Ponti et al, with slight modification. Briefly, after trypsinization and recovery of cells for 30 minutes at 37° C. in growth media, cells were pelleted at 400×g and were resuspended in PBS with 2% FBS and 1 mM EDTA at 1×10^6 cells/mL. Cells were then incubated on ice with a 1:100 dilution of CD44-FITC (BD Biosicences, San Diego, Calif.) for 15 minutes. Alternatively, CD24-PE (BD Bioscences, San Diego, Calif.) (1:100) was utilized for negative selection. After washing three times, cells were resuspended at 2×10^6/mL and passed through a […] mesh before sorting
Sphere assay: A reliable method of measuring the self-renewal capacity of cell population if the ability to be cultured as spheres in the absence of serum or attachment. CD44^high FaDu or Hoechst side population cancer stem cells were cultured in ultra low attachment plates in cancer stem cell media (DMEM/F12, B27 Neurobasal supplement, 20 ng/ml EGF, 10 ng/ml FGF, 4 μg/ml insulin, and 0.4% BSA) to allow spheres formation. Typically, sphere formation was evaluated by microscopy after 10-14 days in culture and spheres with >50 cells were scored.
Identification of compounds that inhibit CSC spherogenesis in vitro. One of the hallmarks of cancer stem cells is their ability to self-renew. A reliable method of measuring the self-renewal capacity of cell populations is the ability to be cultured as spheres in the absence of serum or attachment. To compare the ability of compound 401 to other targeted and chemotherapeutic agents, FACS-isolated CD44^high CSCs were grown as spheres for 72 hours before being challenged with a panel of therapeutic agents. […] Tarceva, Sutent, and Gleevec were added at approximately three times their reported therapeutic concentrations.

[4] = test system: HepG2 human liver cancer cells; assay: 72 hour MTT, HepG2 cells, single drugs and combinations; type: cell-based
Description: (§2) Cell Viability Determination: For 3-(4,5 dimethylthiazol-2-yl)-2,5-diphenyltetrazolium (MTT) (Sigma-Aldrich, St. Louis, Mo.) analysis, cells were plated in 96 well plates at 10,000 cells per well. 24 hours after plating, compound was added to cells at indicated doses. […] following compound addition, MTT was added to each well (0.5 mg/ml, final concentration) and plates were incubated for an additional 2 hours at 37° C. Medium was then aspirated and the formazan product was solubilized in 100 μl of isopropyl alcohol. The absorbance of each well was measured at 570 nm using a microplate reader.
as §1

[5] = test system: A549 human lung cancer cells; assay: 72 hour MTT, A549 cells, single drugs and combinations; type: cell-based; conditions: for inhibition at 2.5 µM: read-out: X (% Inhibition)
Description: as §2, §1

[6] = 72 hour MTT A549 cells, X alone 2.5 μM

SMILES: N.N.O=C([O-])C1(C(=O)[O-])CCC1.[Pt+2] [Carboplatin]
- X (% Inhibition) ([1]; X alone 16 μM): 43%

SMILES: CC(O)c1cc2c(o1)C(=O)c1ccccc1C2=O (stereo not shown) [Compound 301, 2-(1-hydroxyethyl)-naphtho[2,3-b]furan-4,9-dione]
- IC50 (Stat3 [2]): ~2 µM

SMILES: CC(=O)c1cc2c(o1)C(=O)c1cc(Cl)ccc1C2=O [Compound 416, 2-Acetyl-7-Chloro-naphtho[2,3-b]furan-4,9-dione]
- IC50 (Stat3 [2]): ~0.75 µM
- Inhibition of Stat3 DNA-binding activity (in words) (Stat3 [3]): can inhibit

SMILES: CC(=O)c1cc2c(o1)C(=O)c1cc(F)ccc1C2=O [Compound 418, 2-Acetyl-7-Fluoro-naphtho[2,3-b]furan-4,9-dione]
- IC50 (Stat3 [2]): ~0.75 µM
- Inhibition of Stat3 DNA-binding activity (in words) (Stat3 [3]): can inhibit

SMILES: O=C(c1ccccc1)c1cc2cc3ccccc3cc2s1 [Compound 1001, reference compound]
- Inhibition of OSM-stimulated Stat3 reporter activity (in words) (Stat3 [2]; at a much higher concentration (FIG. 4, right panel)): did not inhibit

SMILES: CC(=O)O[C@@]12CO[C@@H]1C[C@H](O)[C@@]1(C)C(=O)[C@H](O)C3=C(C)[C@@H](OC(=O)[C@H](O)[C@@H](NC(=O)OC(C)(C)C)c4ccccc4)C[C@@](O)([C@@H](OC(=O)c4ccccc4)[C@H]21)C3(C)C [Docetaxel, reference compound]
- inhibition at 0.00033 µM ([1]; Homo sapiens, PaCa-2, X alone 0.33 nM): 48%
- Effect on CSC sphere proliferation (CD44high CSCs (FaDu)): resistant

SMILES: COc1cccc2c1C(=O)c1c(O)c3c(c(O)c1C2=O)C[C@@](O)(C(=O)CO)C[C@@H]3O[C@H]1C[C@H](N)[C@H](O)[C@H](C)O1 [Doxorubicin]
- inhibition at 0.016 µM ([1]; Homo sapiens, PaCa-2, X alone 16 nM): 89%
- inhibition at 0.0125 µM ([4]; X alone 12.5 nM): 23%
- inhibition at 0.0125 µM ([5]; 72 hour MTT A549 cells, X alone 12.5 nM): 29%
- Effect on CSC sphere proliferation (CD44high CSCs (FaDu)): resistant

SMILES: C#Cc1cccc(Nc2ncnc3cc(OCCOC)c(OCCOC)cc23)c1 [Erlotinib]
- inhibition at 16 µM ([1]; Homo sapiens, PaCa-2, X alone 16 μM): 26%
- inhibition at 2.5 µM ([5]; A549, 72 h): 43%

SMILES: COc1cc([C@@H]2c3cc4c(cc3[C@@H](O[C@@H]3O[C@@H]5CO[C@@H](C)O[C@H]5[C@H](O)[C@H]3O)[C@H]3COC(=O)[C@H]23)OCO4)cc(OC)c1O [Etoposide]
- inhibition at 0.66 µM ([1]; Homo sapiens, PaCa-2, X alone 660 nM): 58%

SMILES: Nc1ccn([C@@H]2O[C@H](CO)[C@@H](O)C2(F)F)c(=O)n1 [Gemcitabine]
- inhibition at 0.033 µM ([1]; Homo sapiens, PaCa-2, X alone 33 nM): 36%

SMILES: CS(=O)(=O)CCNCc1ccc(-c2ccc3ncnc(Nc4ccc(OCc5cccc(F)c5)c(Cl)c4)c3c2)o1 [Lapatinib]
- inhibition at 6.75 µM ([1]; Homo sapiens, PaCa-2, X alone 6.75 μM): 27%
- inhibition at 2.5 µM [5, 6]: 66%

SMILES: CNC(=O)c1cc(Oc2ccc(NC(=O)Nc3ccc(Cl)c(C(F)(F)F)c3)cc2)ccn1 [Sorafenib]
- inhibition at 2 µM ([1]; Homo sapiens, PaCa-2, X alone 2 μM): 66%
- inhibition at 0.625 µM ([4]; X alone 625 nM): 34%
- inhibition at 2.5 µM ([4]; X alone 2.5 μM): 51%
- inhibition at 2.5 µM [5, 6]: 40%

SMILES: CCN(CC)CCNC(=O)c1c(C)[nH]c(/C=C2\C(=O)Nc3ccc(F)cc32)c1C [Sunitinib]
- inhibition at 12 µM ([1]; Homo sapiens, PaCa-2, X alone 12 μM): 52%
- inhibition at 2.5 µM [5, 6]: 75%
